Assay results taken from patent publication US10894817B2, “Fatty acid modified urocortin-2 analogs for the treatment of diabetes and chronic kidney disease” (priority 2016, dated 2021).
Starred links: 1 amine or outer side, 2 acyl side, 3 side chain; linkers in the order of their positions; H or OH if unused. Residues, ends and D or L forms follow the SMILES beside them. Groups on a side chain read outwards from the residue. *: point of attachment. γGlu = O=C(O)[C@H](CCC(=O)[*:2])N[*:1]; Palmitoyl = CCCCCCCCCCCCCCCC(=O)*

Molecular target: T1, human CRHR2b (Homo sapiens, UniProt Q13324)
T1 construct: expressed in transfected cells; host or cells: Chinese Hamster Ovary (CHO) cells, transient transfection
T1 sequence (Q13324 1-438 isoform Q13324-2): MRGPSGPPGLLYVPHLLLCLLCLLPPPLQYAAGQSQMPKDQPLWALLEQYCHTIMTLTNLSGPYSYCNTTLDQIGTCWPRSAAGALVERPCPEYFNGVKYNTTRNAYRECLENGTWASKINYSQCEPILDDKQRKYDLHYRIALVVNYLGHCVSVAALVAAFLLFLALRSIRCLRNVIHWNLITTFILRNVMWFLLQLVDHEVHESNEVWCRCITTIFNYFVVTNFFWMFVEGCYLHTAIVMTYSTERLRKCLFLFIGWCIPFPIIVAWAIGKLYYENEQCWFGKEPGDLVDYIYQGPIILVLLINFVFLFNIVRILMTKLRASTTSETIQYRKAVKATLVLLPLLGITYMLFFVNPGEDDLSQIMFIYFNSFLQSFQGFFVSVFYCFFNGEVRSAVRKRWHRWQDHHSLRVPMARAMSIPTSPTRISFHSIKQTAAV
Test: human CRHR2b cell-based cAMP assay
Conditions: cAMP assay; Table 26, compounds of Example 9; read-out: hCRHR2b Average EC50
Summary of the method: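 ED50 values are means ± SEM over several runs, curve-fitted from cAMP in pmol, calibrated against unlabeled-cAMP standards. Detection was HTRF competition, ratio 665/620 nm, after 30 min agonist exposure at 37 °C.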

## CCCCCCCCCCCCCCCC(=O)N[C@@H](CCC(=O)NCCCC[C@H](NC(=O)[C@H](CCCCN)NC(=O)[C@H](CCC(=O)O)NC(=O)[C@H](CCC(N)=O)NC(=O)[C@H](CCCCN)NC(=O)[C@H](CCC(=O)O)NC(=O)[C@H](CCC(N)=O)NC(=O)[C@H](CCC(=O)O)NC(=O)[C@H](CC(C)C)NC(=O)[C@H](CC(C)C)NC(=O)[C@@H](NC(=O)[C@H](CCC(N)=O)NC(=O)[C@H](CC(C)C)NC(=O)[C@H](CC(C)C)NC(=O)CNC(=O)[C@@H](NC(=O)[C@@H]1CCCN1C(=O)[C@@H](NC(=O)[C@H](CC(=O)O)NC(=O)[C@H](CC(C)C)NC(=O)[C@H](CO)NC(=O)[C@H](CC(C)C)NC(=O)[C@@H](NC(=O)[C@@H](N)[C@@H](C)CC)C(C)C)C(C)C)[C@@H](C)CC)[C@@H](C)CC)C(=O)N[C@@H](CCCCN)C(=O)N[C@@H](CCC(N)=O)C(=O)N[C@@H](CCC(N)=O)C(=O)N[C@@H](C)C(=O)N[C@H](C(=O)N[C@H](C(=O)N[C@@H](CC(N)=O)C(=O)N[C@@H](C)C(=O)N[C@@H](CCCNC(=N)N)C(=O)N[C@H](C(=O)N[C@@H](CC(C)C)C(=O)N[C@@H](C)C(=O)N[C@@H](CCCNC(=N)N)C(=O)N[C@H](C(N)=O)C(C)C)[C@@H](C)CC)[C@@H](C)O)[C@@H](C)O)C(=O)O [Compound 29] (H-IVLSLDVPIGLLQILLEQEKQEKK([γGlu-Palmitoyl])KQQATTNARILARV-NH2)
  EC50: 64.7 nM

## CCCCCCCCCCCCCCCC(=O)N[C@@H](CCC(=O)NCCCC[C@H](NC(=O)[C@H](CCC(N)=O)NC(=O)[C@H](CCC(N)=O)NC(=O)[C@H](CCCCN)NC(=O)[C@H](CCC(=O)O)NC(=O)[C@H](CCCCN)NC(=O)[C@H](CCC(=O)O)NC(=O)[C@H](CCC(N)=O)NC(=O)[C@H](CCCCN)NC(=O)[C@H](CCC(=O)O)NC(=O)[C@H](CCC(N)=O)NC(=O)[C@H](CCC(=O)O)NC(=O)[C@H](CC(C)C)NC(=O)[C@H](CC(C)C)NC(=O)[C@@H](NC(=O)[C@H](CCC(N)=O)NC(=O)[C@H](CC(C)C)NC(=O)[C@H](CC(C)C)NC(=O)CNC(=O)[C@@H](NC(=O)[C@@H]1CCCN1C(=O)[C@@H](NC(=O)[C@H](CC(=O)O)NC(=O)[C@H](CC(C)C)NC(=O)[C@H](CO)NC(=O)[C@H](CC(C)C)NC(=O)[C@@H](NC(=O)[C@@H](N)[C@@H](C)CC)C(C)C)C(C)C)[C@@H](C)CC)[C@@H](C)CC)C(=O)N[C@H](C(=O)N[C@H](C(=O)N[C@@H](CC(N)=O)C(=O)N[C@@H](C)C(=O)N[C@@H](CCCNC(=N)N)C(=O)N[C@H](C(=O)N[C@@H](CC(C)C)C(=O)N[C@@H](C)C(=O)N[C@@H](CCCNC(=N)N)C(=O)N[C@H](C(N)=O)C(C)C)[C@@H](C)CC)[C@@H](C)O)[C@@H](C)O)C(=O)O [Compound 36] (H-IVLSLDVPIGLLQILLEQEKQEKEKQQK([γGlu-Palmitoyl])TTNARILARV-NH2)
  EC50: 331 nM

## CCCCCCCCCCCCCCCC(=O)N[C@@H](CCC(=O)NCCCC[C@H](NC(=O)[C@H](CCCCN)NC(=O)[C@H](CCC(=O)O)NC(=O)[C@H](CCC(N)=O)NC(=O)[C@H](CCC(=O)O)NC(=O)[C@H](CC(C)C)NC(=O)[C@H](CC(C)C)NC(=O)[C@@H](NC(=O)[C@H](CCC(N)=O)NC(=O)[C@H](CC(C)C)NC(=O)[C@H](CC(C)C)NC(=O)CNC(=O)[C@@H](NC(=O)[C@@H]1CCCN1C(=O)[C@@H](NC(=O)[C@H](CC(=O)O)NC(=O)[C@H](CC(C)C)NC(=O)[C@H](CO)NC(=O)[C@H](CC(C)C)NC(=O)[C@@H](NC(=O)[C@@H](N)[C@@H](C)CC)C(C)C)C(C)C)[C@@H](C)CC)[C@@H](C)CC)C(=O)N[C@@H](CCC(=O)O)C(=O)N[C@@H](CCCCN)C(=O)N[C@@H](CCC(=O)O)C(=O)N[C@@H](CCCCN)C(=O)N[C@@H](CCC(N)=O)C(=O)N[C@@H](CCC(N)=O)C(=O)N[C@@H](C)C(=O)N[C@H](C(=O)N[C@H](C(=O)N[C@@H](CC(N)=O)C(=O)N[C@@H](C)C(=O)N[C@@H](CCCNC(=N)N)C(=O)N[C@H](C(=O)N[C@@H](CC(C)C)C(=O)N[C@@H](C)C(=O)N[C@@H](CCCNC(=N)N)C(=O)N[C@H](C(N)=O)C(C)C)[C@@H](C)CC)[C@@H](C)O)[C@@H](C)O)C(=O)O [Compound 26] (H-IVLSLDVPIGLLQILLEQEKK([γGlu-Palmitoyl])EKEKQQATTNARILARV-NH2)
  EC50: 15.6 nM
